Data published in US8362031B2, “Lonidamine analogues and treatment of polycystic kidney disease” (University of Kansas, priority 2004, dated 2013).

Test system: male rats
Experiment: Fertility trials following oral administration (challenge mating)
Format: in vivo, rat
Settings: for MALES MATED/MALES FERTILE: Table 9C
Description: The following table illustrates the results of a single oral does of 6 mg/kg of RC-MC-110 orally to male rats. […] The ethyl alcohol was evaporated 10% prior to administration. The “embryos normal” and “embryos abnormal” represents the mean number of embryos per pregnant female. […]
The following table illustrates the results of a single oral does of four different doses of RC-MC-110 orally to male rats.

[1] = Table 9A, seven consecutive daily oral doses of 6 mg/day, week 1
[2] = Table 9A, seven consecutive daily oral doses of 6 mg/day, week 2
[3] = Table 9A, seven consecutive daily oral doses of 6 mg/day, week 3
[4] = Table 9A, seven consecutive daily oral doses of 6 mg/day, week 4
[5] = Table 9A, seven consecutive daily oral doses of 6 mg/day, week 5
[6] = Table 9A, seven consecutive daily oral doses of 6 mg/day, week 6
[7] = Table 9A, seven consecutive daily oral doses of 6 mg/day, week 7
[8] = Table 9A, seven consecutive daily oral doses of 6 mg/day, week 8
[9] = Table 9A, seven consecutive daily oral doses of 6 mg/day, week 9
[10] = Table 9A, seven consecutive daily oral doses of 6 mg/day, week 10
[11] = Table 9A, seven consecutive daily oral doses of 6 mg/day, week 12
[12] = Table 9A, seven consecutive daily oral doses of 6 mg/day, week 13
[13] = Table 9A, seven consecutive daily oral doses of 6 mg/day, week 14
[14] = Table 9A, seven consecutive daily oral doses of 6 mg/day, week 18
[15] = Table 9B, single oral dose of 6 mg/kg, week 1
[16] = Table 9B, single oral dose of 6 mg/kg, week 2
[17] = Table 9B, single oral dose of 6 mg/kg, week 3
[18] = Table 9B, single oral dose of 6 mg/kg, week 4
[19] = Table 9B, single oral dose of 6 mg/kg, week 5
[20] = Table 9B, single oral dose of 6 mg/kg, week 6
[21] = Table 9B, single oral dose of 6 mg/kg, week 7
[22] = Table 9B, single oral dose of 6 mg/kg, week 8
[23] = Table 9B, single oral dose of 6 mg/kg, week 9
[24] = Table 9B, single oral dose of 6 mg/kg, week 10
[25] = Table 9B, single oral dose of 6 mg/kg, week 12
[26] = Table 9B, single oral dose of 6 mg/kg, week 13
[27] = Table 9B, single oral dose of 6 mg/kg, week 14
[28] = Table 9B, single oral dose of 6 mg/kg, week 18
[29] = Table 9B, single oral dose of 6 mg/kg, week 26

O=C(O)/C=C/c1nn(Cc2ccc(Cl)cc2Cl)c2cc(C(F)(F)F)ccc12 [RC-MC-110, trans 3-[1-(2,4-dichlorobenzyl)-6-trifluoromethyl-1H-indazol-3-yl]-acrylic acid]
9: Embryos normal (mean number per pregnant female) [9]
0.3: Embryos abnormal (mean number per pregnant female) [2] | Embryos abnormal (mean number per pregnant female) [11] | Embryos abnormal (mean number per pregnant female) [12] | Embryos abnormal (mean number per pregnant female) [16]
6: Embryos normal (mean number per pregnant female) [17]
0.7: Embryos abnormal (mean number per pregnant female) [27] | Embryos abnormal (mean number per pregnant female) [28]
0.4: Embryos abnormal (mean number per pregnant female) [23]
6/3: MALES MATED/MALES FERTILE (single oral dose 3.0 MG/KG in 10% ethyl alcohol and sesame oil, week 3)
14: Embryos normal (mean number per pregnant female) [11] | Embryos normal (mean number per pregnant female) [13] | Embryos normal (mean number per pregnant female) [14] | Embryos normal (mean number per pregnant female) [25] | Embryos normal (mean number per pregnant female) [26] | Embryos normal (mean number per pregnant female) [28]
7: Males fertile (Table 9A, seven consecutive daily oral doses of 6 mg/day, week 1, 7 males mated) | Males fertile (Table 9A, seven consecutive daily oral doses of 6 mg/day, week 2, 7 males mated) | Embryos normal (mean number per pregnant female) [3] | Embryos normal (mean number per pregnant female) [4] | Males fertile (Table 9B, single oral dose of 6 mg/kg, week 1, 7 males mated) | Males fertile (Table 9B, single oral dose of 6 mg/kg, week 2, 7 males mated)
3: Males fertile (Table 9A, seven consecutive daily oral doses of 6 mg/day, week 4, 7 males mated) | Males fertile (Table 9B, single oral dose of 6 mg/kg, week 8, 7 males mated) | Males fertile (Table 9B, single oral dose of 6 mg/kg, week 10, 7 males mated) | Males fertile (Table 9B, single oral dose of 6 mg/kg, week 13, 7 males mated) | Males fertile (Table 9B, single oral dose of 6 mg/kg, week 26, 7 males mated)
6/6: MALES MATED/MALES FERTILE (single oral dose 0.75 MG/KG in 10% ethyl alcohol and sesame oil, week 1) | MALES MATED/MALES FERTILE (single oral dose 0.75 MG/KG in 10% ethyl alcohol and sesame oil, week 3) | MALES MATED/MALES FERTILE (single oral dose 0.75 MG/KG in 10% ethyl alcohol and sesame oil, week 4) | MALES MATED/MALES FERTILE (single oral dose 0.75 MG/KG in 10% ethyl alcohol and sesame oil, week 5) | MALES MATED/MALES FERTILE (single oral dose 0.75 MG/KG in 10% ethyl alcohol and sesame oil, week 6) | MALES MATED/MALES FERTILE (single oral dose 0.75 MG/KG in 10% ethyl alcohol and sesame oil, week 7) | MALES MATED/MALES FERTILE (single oral dose 0.75 MG/KG in 10% ethyl alcohol and sesame oil, week 8) | MALES MATED/MALES FERTILE (single oral dose 1.5 MG/KG in 10% ethyl alcohol and sesame oil, week 2) | MALES MATED/MALES FERTILE (single oral dose 1.5 MG/KG in 10% ethyl alcohol and sesame oil, week 5) | MALES MATED/MALES FERTILE (single oral dose 1.5 MG/KG in 10% ethyl alcohol and sesame oil, week 6) | MALES MATED/MALES FERTILE (single oral dose 1.5 MG/KG in 10% ethyl alcohol and sesame oil, week 7) | MALES MATED/MALES FERTILE (single oral dose 1.5 MG/KG in 10% ethyl alcohol and sesame oil, week 8) | MALES MATED/MALES FERTILE (single oral dose 1.5 MG/KG in 10% ethyl alcohol and sesame oil, week 9) | MALES MATED/MALES FERTILE (single oral dose 3.0 MG/KG in 10% ethyl alcohol and sesame oil, week 1) | MALES MATED/MALES FERTILE (single oral dose 3.0 MG/KG in 10% ethyl alcohol and sesame oil, week 2) | MALES MATED/MALES FERTILE (single oral dose 3.0 MG/KG in 10% ethyl alcohol and sesame oil, week 5) | MALES MATED/MALES FERTILE (single oral dose 3.0 MG/KG in 10% ethyl alcohol and sesame oil, week 6) | MALES MATED/MALES FERTILE (single oral dose 3.0 MG/KG in 10% ethyl alcohol and sesame oil, week 7) | MALES MATED/MALES FERTILE (single oral dose 3.0 MG/KG in 10% ethyl alcohol and sesame oil, week 8) | MALES MATED/MALES FERTILE (single oral dose 3.0 MG/KG in 10% ethyl alcohol and sesame oil, week 9)
0: Embryos abnormal (mean number per pregnant female) [3] | Embryos abnormal (mean number per pregnant female) [5] | Embryos normal (mean number per pregnant female) [5] | Males fertile (Table 9A, seven consecutive daily oral doses of 6 mg/day, week 5, 7 males mated) | Embryos abnormal (mean number per pregnant female) [6] | Embryos normal (mean number per pregnant female) [6] | Males fertile (Table 9A, seven consecutive daily oral doses of 6 mg/day, week 6, 7 males mated) | Embryos abnormal (mean number per pregnant female) [7] | Embryos normal (mean number per pregnant female) [7] | Males fertile (Table 9A, seven consecutive daily oral doses of 6 mg/day, week 7, 7 males mated) | Embryos abnormal (mean number per pregnant female) [8] | Embryos normal (mean number per pregnant female) [8] | Males fertile (Table 9A, seven consecutive daily oral doses of 6 mg/day, week 8, 6 males mated) | Embryos abnormal (mean number per pregnant female) [10] | Embryos abnormal (mean number per pregnant female) [13] | Embryos abnormal (mean number per pregnant female) [14] | Embryos abnormal (mean number per pregnant female) [18] | Embryos normal (mean number per pregnant female) [18] | Males fertile (Table 9B, single oral dose of 6 mg/kg, week 4, 7 males mated) | Embryos abnormal (mean number per pregnant female) [19] | Embryos normal (mean number per pregnant female) [19] | Males fertile (Table 9B, single oral dose of 6 mg/kg, week 5, 7 males mated) | Embryos abnormal (mean number per pregnant female) [21]
10: Embryos normal (mean number per pregnant female) [20]
7/1: MALES MATED/MALES FERTILE (single oral dose 6.0 MG/KG in 10% ethyl alcohol and sesame oil, week 6)
1.0: Embryos abnormal (mean number per pregnant female) [26]
12: Embryos normal (mean number per pregnant female) [16] | Embryos normal (mean number per pregnant female) [22] | Embryos normal (mean number per pregnant female) [23]
0.6: Embryos abnormal (mean number per pregnant female) [29]
13: Embryos normal (mean number per pregnant female) [2] | Embryos normal (mean number per pregnant female) [21] | Embryos normal (mean number per pregnant female) [29]
7/3: MALES MATED/MALES FERTILE (single oral dose 6.0 MG/KG in 10% ethyl alcohol and sesame oil, week 8) | MALES MATED/MALES FERTILE (single oral dose 6.0 MG/KG in 10% ethyl alcohol and sesame oil, week 10) | MALES MATED/MALES FERTILE (single oral dose 6.0 MG/KG in 10% ethyl alcohol and sesame oil, week 13)
7/0: MALES MATED/MALES FERTILE (single oral dose 6.0 MG/KG in 10% ethyl alcohol and sesame oil, week 4) | MALES MATED/MALES FERTILE (single oral dose 6.0 MG/KG in 10% ethyl alcohol and sesame oil, week 5)
6/5: MALES MATED/MALES FERTILE (single oral dose 1.5 MG/KG in 10% ethyl alcohol and sesame oil, week 1) | MALES MATED/MALES FERTILE (single oral dose 1.5 MG/KG in 10% ethyl alcohol and sesame oil, week 3) | MALES MATED/MALES FERTILE (single oral dose 1.5 MG/KG in 10% ethyl alcohol and sesame oil, week 4)
4: Males fertile (Table 9B, single oral dose of 6 mg/kg, week 9, 7 males mated) | Males fertile (Table 9B, single oral dose of 6 mg/kg, week 12, 7 males mated) | Males fertile (Table 9B, single oral dose of 6 mg/kg, week 14, 7 males mated) | Males fertile (Table 9B, single oral dose of 6 mg/kg, week 18, 7 males mated)
0.1: Embryos abnormal (mean number per pregnant female) [25]
0.5: Embryos abnormal (mean number per pregnant female) [4]
2: Males fertile (Table 9A, seven consecutive daily oral doses of 6 mg/day, week 3, 7 males mated) | Embryos normal (mean number per pregnant female) [10] | Males fertile (Table 9A, seven consecutive daily oral doses of 6 mg/day, week 12, 7 males mated) | Males fertile (Table 9A, seven consecutive daily oral doses of 6 mg/day, week 13, 7 males mated) | Males fertile (Table 9A, seven consecutive daily oral doses of 6 mg/day, week 14, 7 males mated) | Males fertile (Table 9A, seven consecutive daily oral doses of 6 mg/day, week 18, 7 males mated) | Embryos abnormal (mean number per pregnant female) [17] | Males fertile (Table 9B, single oral dose of 6 mg/kg, week 3, 7 males mated) | Males fertile (Table 9B, single oral dose of 6 mg/kg, week 7, 7 males mated)
7/4: MALES MATED/MALES FERTILE (single oral dose 6.0 MG/KG in 10% ethyl alcohol and sesame oil, week 9) | MALES MATED/MALES FERTILE (single oral dose 6.0 MG/KG in 10% ethyl alcohol and sesame oil, week 12) | MALES MATED/MALES FERTILE (single oral dose 6.0 MG/KG in 10% ethyl alcohol and sesame oil, week 14)
7/2: MALES MATED/MALES FERTILE (single oral dose 6.0 MG/KG in 10% ethyl alcohol and sesame oil, week 3) | MALES MATED/MALES FERTILE (single oral dose 6.0 MG/KG in 10% ethyl alcohol and sesame oil, week 7)
7/7: MALES MATED/MALES FERTILE (single oral dose 6.0 MG/KG in 10% ethyl alcohol and sesame oil, week 1) | MALES MATED/MALES FERTILE (single oral dose 6.0 MG/KG in 10% ethyl alcohol and sesame oil, week 2)
11: Embryos normal (mean number per pregnant female) [24] | Embryos normal (mean number per pregnant female) [27]
1: Embryos abnormal (mean number per pregnant female) [9] | Males fertile (Table 9A, seven consecutive daily oral doses of 6 mg/day, week 9, 7 males mated) | Males fertile (Table 9A, seven consecutive daily oral doses of 6 mg/day, week 10, 7 males mated) | Embryos abnormal (mean number per pregnant female) [20] | Males fertile (Table 9B, single oral dose of 6 mg/kg, week 6, 7 males mated) | Embryos abnormal (mean number per pregnant female) [22] | Embryos abnormal (mean number per pregnant female) [24]
0.2: Embryos abnormal (mean number per pregnant female) [1] | Embryos abnormal (mean number per pregnant female) [15]
6/2: MALES MATED/MALES FERTILE (single oral dose 3.0 MG/KG in 10% ethyl alcohol and sesame oil, week 4)
8/8: MALES MATED/MALES FERTILE (single oral dose 0.75 MG/KG in 10% ethyl alcohol and sesame oil, week 2)
15: Embryos normal (mean number per pregnant female) [1] | Embryos normal (mean number per pregnant female) [12] | Embryos normal (mean number per pregnant female) [15]
